Consider eight molecules from patent publication US20260152503A1, “SPIROBICYCLIC COMPOUNDS” (ACERAND THERAPEUTICS (HONG KONG) LIMITED, priority 2022, published 2026).

One assay addresses T1, FGFR2 (Homo sapiens, UniProt P21802, K310R/N549K).
T1 construct: in FGFR aberrations of AN3CA (FGFR2/k310R, N549K); host or cells: AN3CA
Kind of assay: pERK potency assay (In Cell ELISA), AN3CA cells. The note with it: for pIC50: pERK, AN3CA (FGFR2/k310R, N549K) cells, 3 hours; for FGFR1 IC50/FGFR2 IC50 / FGFR3 IC50/FGFR2 IC50: selectivity ratio, pERK potency; for FGFR1 IC50/FGFR2 IC50: FGFR2 relative to FGFR1; for FGFR3 IC50/FGFR2 IC50: FGFR2 relative to FGFR3. The assay is classed as cell-based. Summed up:
(§1)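 Cells with FGFR aberrations (DMS114 FGFR1 amplification, RT112 FGFR3-TACC3 fusion, AN3CA FGFR2 K310R/N549K) exposed 3 h at 37 °C to compound, final 0.000038–10 μM (4-fold dilutions). pERK (Thr202/Tyr204) quantified by In-Cell ELISA chemiluminescence; IC50 from 4-parameter sigmoidal fit.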

For the next assay, the target named is T2, FGFR1 (Homo sapiens, UniProt P11362).
T2 construct: DMS114 (FGFR1 amplification); host or cells: DMS114
T2 sequence (P11362 22-822): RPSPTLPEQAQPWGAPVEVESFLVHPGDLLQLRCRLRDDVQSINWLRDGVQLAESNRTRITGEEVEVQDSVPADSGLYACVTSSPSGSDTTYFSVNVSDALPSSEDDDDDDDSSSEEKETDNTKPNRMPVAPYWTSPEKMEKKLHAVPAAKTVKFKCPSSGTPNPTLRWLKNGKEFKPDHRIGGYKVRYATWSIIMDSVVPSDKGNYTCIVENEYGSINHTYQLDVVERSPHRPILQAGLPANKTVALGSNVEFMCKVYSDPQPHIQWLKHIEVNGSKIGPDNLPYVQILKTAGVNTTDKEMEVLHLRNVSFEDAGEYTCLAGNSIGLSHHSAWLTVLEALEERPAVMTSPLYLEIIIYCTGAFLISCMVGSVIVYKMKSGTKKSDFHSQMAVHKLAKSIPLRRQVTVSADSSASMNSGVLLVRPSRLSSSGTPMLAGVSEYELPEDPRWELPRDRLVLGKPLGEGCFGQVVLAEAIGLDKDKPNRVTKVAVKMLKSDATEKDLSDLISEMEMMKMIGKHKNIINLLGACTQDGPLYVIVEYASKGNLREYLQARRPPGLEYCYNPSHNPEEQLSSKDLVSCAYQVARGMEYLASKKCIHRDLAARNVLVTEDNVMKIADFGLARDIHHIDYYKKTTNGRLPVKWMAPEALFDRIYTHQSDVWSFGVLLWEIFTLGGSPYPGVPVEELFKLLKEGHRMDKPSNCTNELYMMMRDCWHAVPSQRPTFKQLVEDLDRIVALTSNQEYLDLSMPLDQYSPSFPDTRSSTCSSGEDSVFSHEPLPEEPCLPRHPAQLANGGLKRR
Kind of assay: pERK potency assay (In Cell ELISA), DMS114 cells. The assay is classed as cell-based. The note with it: DMS114 (FGFR1 amplification) cells, 3 hours. In a few lines:
as §1

Another assay addresses T3, FGFR3 (Homo sapiens, UniProt P22607).
T3 construct: RT112 (FGFR3 overexpression/FGFR3-TACC3 fusion); host or cells: RT112; the other entry of the earlier key: TACC3 (Q9Y6A5, Transforming acidic coiled-coil-containing protein 3)
The assay can be described thus: pERK potency assay (In Cell ELISA), RT112 cells. The assay is classed as cell-based. The note with it: RT112 (FGFR3 overexpression/FGFR3-TACC3 fusion) cells, 3 hours. Summed up:
as §1
Background: In an ELISA, binding on a coated surface is turned into a signal by an enzyme label.

In the next assay the test system is AN3CA. The assay can be described thus: 2D cell proliferation assay, AN3CA. Format: cell-based. The note with it: Homo sapiens, AN3-CA, 96 hours, CTG, read-out: Cell Line, IC50 AN3CA. The method, then:
(§2) Low IC50 values are indicative of the high potency of the FGFR inhibitor compounds in this assay selling. […] Cell proliferation assays are performed in two-dimensional (2D)) anchorage-dependent conditions in 96 well plates (Corning® Black/Clear flat Bottom, Cat #3603) with the following cell lines: • Ba/F3 FGFR2-BICC1 (human […]): Mouse Ba/F3 cell line stably expressed exogenous human FGFR2-BICC1 fusion gene bearing V546F mutation in FGFR2 Ba/F3; • FGFR2-BICC1 (human FGFR2/[…]): Mouse Ba/F3 cell line stably expressed exogenous human FGFR2-BICC1 fusion gene bearing N549K mutation in FGFR2; • Snu-16: human gastric cancer cell with FGFR2 amplification; • KATO III: human gastric cancer cell with FGFR2 amplification; • AN3CA: Human endometrial cancer with FGFR2 mutation (k310R, N549K); • MFM-223: Human breast cancer with FGFR1/2 amplification; • MFE-296: Human endometrial cancer with FGFR2 mutation (N549K); • MFE-280: Human endometrial cancer with FGFR2 mutation ([…]); • NCI-H1581: human non-small cell lung cancer with FGFR1 amplification; • KG-1a: Acute myelogenous leukemia with FGFR1OP2-FGFR1 translocation; • DMS114: human small cell carcinoma of the lung with FGFR1 amplification; • RT112: human bladder cancer with FGFR3 overexpression/FGFR3-TACC3 fusion; • SW780: human bladder cancer with FGFR3 overexpression/FGFR3-BALAP2L1 fusion; • Hep3B: Liver cancer with FGF19 amplification (FGFR4 ligand); • AGS: Human gastric adenocarcinoma with Kras G12D mutation and FGFR wild type; • PC-9: human non-small cell lung cancer (NSCLC) with wild-type FGFR and an EGFR del19 mutation; or • H1975: human non-small cell lung cancer (NSCLC) with wild-type FGFR and EGFR L858R/T790M mutation.
(§3) Cell lines are purchased from the American Type Culture Collection (ATCC) or Sigma. All cell lines are maintained in RPMI-1640 or DMEM supplemented with 10% heat-inactivated fetal bovine serum.
(§4) Cells growing in the log phase are detached with Gibco™ TrypLE™ Express Enzyme and plated in 96 well plate at 3000 to 5000 cells/well in 100 μl of media. After overnight incubation at 37° C., 5% CO2 incubator, cells are treated with compounds (50 uL/well) at the final concentrations spanning from 0.000038 uM to 10 μM (4-fold serial dilution for total of 10 points). Cells are incubated at 37° C., 5% CO2, and 95% humidity incubator for 96 hours. At the end of incubation 2D CTG reagent from Promega was added to each well according to vendors recommendation and mixed for 10 min in dark. The luminescence signals are determined with a Biotek™ plate reader. Data is fitted using a sigmoidal curve analysis program (GraphPad Prism®) with variable hill slope and IC50 is determined.

For the next assay, the system named is KATO III. The assay can be described thus: 2D cell proliferation assay, KATO III. The assay is classed as cell-based. The note with it: Homo sapiens, 96 hours, CTG, read-out: Cell Line, IC50 KATO III. The method, then:
as §2, §3, §4

Another assay has as its system SNU-16. Kind of assay: 2D cell proliferation assay, SNU-16. The assay is classed as cell-based. The note with it: Homo sapiens, 96 hours, CTG, read-out: Cell Line, IC50 SNU-16. On the procedure:
as §2, §3, §4

The target of another assay is T4, Ba/F3 FGFR2-N549K (Homo sapiens, UniProt P21802, N549K, cells depend on it).
T4 construct: fused on or other part: Q9H694 (Protein bicaudal C homolog 1)
T4 sequence (P21802 whole entry N549K, the tested form may be a part): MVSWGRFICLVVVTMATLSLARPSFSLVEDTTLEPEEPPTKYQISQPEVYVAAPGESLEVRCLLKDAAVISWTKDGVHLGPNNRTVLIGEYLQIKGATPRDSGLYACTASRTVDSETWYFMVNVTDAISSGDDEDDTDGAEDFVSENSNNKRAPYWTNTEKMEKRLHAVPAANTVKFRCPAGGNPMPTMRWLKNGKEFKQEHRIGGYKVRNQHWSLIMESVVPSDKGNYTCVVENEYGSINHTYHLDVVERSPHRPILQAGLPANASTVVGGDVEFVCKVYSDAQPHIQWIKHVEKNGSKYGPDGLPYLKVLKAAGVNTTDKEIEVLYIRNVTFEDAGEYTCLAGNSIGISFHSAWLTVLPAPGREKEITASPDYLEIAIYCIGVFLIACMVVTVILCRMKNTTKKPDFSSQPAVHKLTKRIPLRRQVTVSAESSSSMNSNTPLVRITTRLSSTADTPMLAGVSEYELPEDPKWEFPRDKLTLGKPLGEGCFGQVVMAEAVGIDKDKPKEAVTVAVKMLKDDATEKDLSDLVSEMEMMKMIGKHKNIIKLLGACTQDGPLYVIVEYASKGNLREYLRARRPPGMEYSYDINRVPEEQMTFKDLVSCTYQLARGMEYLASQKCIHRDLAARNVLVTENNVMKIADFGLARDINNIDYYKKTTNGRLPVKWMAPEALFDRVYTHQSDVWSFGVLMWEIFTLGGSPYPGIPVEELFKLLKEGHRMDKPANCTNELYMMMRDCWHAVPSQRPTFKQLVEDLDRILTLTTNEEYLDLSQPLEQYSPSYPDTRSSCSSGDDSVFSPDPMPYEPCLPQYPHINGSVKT
Kind of assay: 2D cell proliferation assay, Ba/F3 FGFR2-N549K. Format: cell-based, mouse. The note with it: 96 hours, CTG, read-out: Cell Line, IC50 Ba/F3 FGFR2-N549K. On the procedure: as §2, §3, §4

The next assay deals with T5, Ba/F3 FGFR2-V564F (Homo sapiens, UniProt P21802, V564F, cells depend on it).
T5 construct: fused on or other part: Q9H694 (Protein bicaudal C homolog 1)
T5 sequence (P21802 whole entry V564F, the tested form may be a part): as the sequence (P21802 whole entry N549K, the tested form may be a part) above, with K549N, V564F counted along it
Kind of assay: 2D cell proliferation assay, Ba/F3 FGFR2-V564F. The assay is classed as cell-based, mouse. The note with it: 96 hours, CTG, read-out: Cell Line, IC50 Ba/F3 FGFR2-V564F. On the procedure: as §2, §3, §4

pIC50: −log10 of the molar value. Some results are limits rather than exact numbers.

T1 sequence (P21802 22-821 K310R/N549K): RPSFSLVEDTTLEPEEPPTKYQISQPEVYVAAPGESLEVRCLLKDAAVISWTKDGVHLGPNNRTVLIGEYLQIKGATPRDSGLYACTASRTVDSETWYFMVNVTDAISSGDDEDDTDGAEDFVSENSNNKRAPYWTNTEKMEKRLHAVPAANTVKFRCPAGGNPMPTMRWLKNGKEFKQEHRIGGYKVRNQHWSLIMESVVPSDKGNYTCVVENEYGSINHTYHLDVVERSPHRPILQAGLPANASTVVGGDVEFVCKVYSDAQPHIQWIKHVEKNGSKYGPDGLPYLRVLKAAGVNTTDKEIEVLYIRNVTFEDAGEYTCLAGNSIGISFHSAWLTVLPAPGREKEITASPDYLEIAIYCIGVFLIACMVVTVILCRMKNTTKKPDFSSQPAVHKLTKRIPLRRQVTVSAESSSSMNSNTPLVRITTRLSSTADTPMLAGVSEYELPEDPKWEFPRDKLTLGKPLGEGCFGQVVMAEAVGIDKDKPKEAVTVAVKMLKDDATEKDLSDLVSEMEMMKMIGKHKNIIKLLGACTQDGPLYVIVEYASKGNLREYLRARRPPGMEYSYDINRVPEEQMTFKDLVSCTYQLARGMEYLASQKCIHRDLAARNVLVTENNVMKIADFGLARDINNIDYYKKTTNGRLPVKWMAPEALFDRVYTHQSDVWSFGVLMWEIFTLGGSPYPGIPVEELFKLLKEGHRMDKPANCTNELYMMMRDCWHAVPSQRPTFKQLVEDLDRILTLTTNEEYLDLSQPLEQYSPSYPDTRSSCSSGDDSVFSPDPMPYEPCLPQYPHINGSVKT

For orientation: pIC50 means −log10 of the IC50, conventionally taken in molar units. Regarding `C=CC(=O)N1CCC2(CC=C(c3c(-c4ccc(Oc5ncccn5)cc4)c4c(N)ncnc4n3C)CC2)CC1` [Example 4, 1-(9-(4-amino-7-methyl-5-(4-(pyrimidin-2-yloxy)phenyl)-7H-pyrrolo[2,3-d]pyrimidin-6-yl)-3-azaspiro[5.5]undec-8-en-3-yl)prop-2-en-1-one], the pIC50 is 8.00 to 9.00 at FGFR2; less than 7.00 at FGFR1; less than 7.00 on FGFR3; 7.00 to 7.52 in the assay with AN3CA; 7.52 to 8.00 with KATO III; 8.00 to 9.00 with SNU-16. Further, the “FGFR1 IC50/FGFR2 IC50” value on FGFR2 was “F (a selectivity ratio greater than 50 but less than or equal to 150)”. For the same molecule, on FGFR2, the “FGFR3 IC50/FGFR2 IC50” value is recorded as “G (a selectivity ratio greater than 150 but less than or equal to 500)”.
Turning to `C=CC(=O)N1CCC2(CC=C(c3c(-c4ccc(OC)cc4)c4c(N)ncnc4n3C)CC2)CC1` [Example 8, 1-(9-(4-amino-5-(4-methoxyphenyl)-7-methyl-7H-pyrrolo[2,3-d]pyrimidin-6-yl)-3-azaspiro[5.5]undec-8-en-3-yl)prop-2-en-1-one], the pIC50 at FGFR2 was no less than 9.00; on FGFR1 it was 7.00 to 7.52; on FGFR3, less than 7.00; in the assay on AN3CA, 8.00 to 9.00; in the assay on KATO III, 8.00 to 9.00; with SNU-16, 8.00 to 9.00. The “FGFR1 IC50/FGFR2 IC50” value on FGFR2 was “G (a selectivity ratio greater than 150 but less than or equal to 500)”. Besides, the “FGFR3 IC50/FGFR2 IC50” value at FGFR2 was “H (a selectivity ratio greater than 500 but less than or equal to 1000)”.
In the case of `C=CC(=O)N1CCC2(CC=C(c3c(-c4cccc(F)c4)c4c(N)ncnc4n3C)CC2)CC1` [Example 10, 1-(9-(4-amino-5-(3-fluorophenyl)-7-methyl-7H-pyrrolo[2,3-d]pyrimidin-6-yl)-3-azaspiro[5.5]undec-8-en-3-yl)prop-2-en-1-one], the negative logarithm of the IC50 (pIC50) was 8.00 to 9.00 at FGFR2; less than 7.00 at FGFR1; less than 7.00 at FGFR3; 7.00 to 7.52 with AN3CA; 7.52 to 8.00 in the assay with KATO III; 7.52 to 8.00 in the assay on SNU-16. Moreover, the “FGFR1 IC50/FGFR2 IC50” value at FGFR2 was “G (a selectivity ratio greater than 150 but less than or equal to 500)”. Further, at FGFR2, the “FGFR3 IC50/FGFR2 IC50” value is “G (a selectivity ratio greater than 150 but less than or equal to 500)”.
Regarding `C=CC(=O)N1CCC2(CC=C(c3c(-c4cccc(OC)c4)c4c(N)ncnc4n3C)CC2)CC1` [Example 16, 1-(9-(4-amino-5-(3-methoxyphenyl)-7-methyl-7H-pyrrolo[2,3-d]pyrimidin-6-yl)-3-azaspiro[5.5]undec-8-en-3-yl)prop-2-en-1-one], the negative-log IC50 (pIC50) was 8.00 to 9.00 at FGFR2; less than 7.00 at FGFR1; less than 7.00 on FGFR3; 7.00 to 7.52 with AN3CA; 7.52 to 8.00 in the assay with KATO III; 7.52 to 8.00 in the assay on SNU-16. Also, the “FGFR1 IC50/FGFR2 IC50” value at FGFR2 is listed as “F (a selectivity ratio greater than 50 but less than or equal to 150)”. For the same molecule, on FGFR2, the “FGFR3 IC50/FGFR2 IC50” value is on record as “G (a selectivity ratio greater than 150 but less than or equal to 500)”.
`C=CC(=O)N1CCC2(CC=C(c3c(-c4ccc(OC(F)F)cc4)c4c(N)ncnc4n3C)CC2)CC1` [Example 17, 1-(9-(4-amino-5-(4-(difluoromethoxy)phenyl)-7-methyl-7H-pyrrolo[2,3-d]pyrimidin-6-yl)-3-azaspiro[5.5]undec-8-en-3-yl)prop-2-en-1-one]: the pIC50 at FGFR2 was no less than 9.00; on FGFR1, 7.00 to 7.52; at FGFR3, less than 7.00; in the assay with AN3CA, 7.52 to 8.00; in the assay on KATO III it was 8.00 to 9.00; in the assay with SNU-16 it was 8.00 to 9.00. Also, the “FGFR1 IC50/FGFR2 IC50” value on FGFR2 was “G (a selectivity ratio greater than 150 but less than or equal to 500)”. Also, the “FGFR3 IC50/FGFR2 IC50” value on FGFR2 is listed as “G (a selectivity ratio greater than 150 but less than or equal to 500)”.
Consider `C=CC(=O)N1CCC2(CC=C(c3c(-c4ccc(OC(F)F)nc4)c4c(N)ncnc4n3C)CC2)CC1` [Example 29, 1-(9-(4-amino-5-(6-(difluoromethoxy)pyridin-3-yl)-7-methyl-7H-pyrrolo[2,3-d]pyrimidin-6-yl)-3-azaspiro[5.5]undec-8-en-3-yl)prop-2-en-1-one], for which the pIC50 on FGFR2 was no less than 9.00; at FGFR1 it was less than 7.00; on FGFR3, less than 7.00; in the assay on KATO III it was 8.00 to 9.00; in the assay with SNU-16 it was 8.00 to 9.00. In addition, the “FGFR1 IC50/FGFR2 IC50” value on FGFR2 is given as “H (a selectivity ratio greater than 500 but less than or equal to 1000)”. The “FGFR3 IC50/FGFR2 IC50” value on FGFR2 was “J (a selectivity ratio greater than 2000)”. For the same molecule, the GI50 at Ba/F3 FGFR2-N549K fell in the range of 0.001 to 0.01 µM; at Ba/F3 FGFR2-V564F it was 0.03 to 0.1 µM.
On to `C=CC(=O)N1CCC2(CC=C(c3c(-c4ncc(OC5CC5)cn4)c4c(N)ncnc4n3C)CC2)CC1` [Example 50, 1-(9-(4-amino-5-(5-cyclopropoxypyrimidin-2-yl)-7-methyl-7H-pyrrolo[2,3-d]pyrimidin-6-yl)-3-azaspiro[5.5]undec-8-en-3-yl)prop-2-en-1-one], for which the pIC50 at FGFR2 is no less than 9.00; at FGFR1, less than 7.00; at FGFR3, less than 7.00. For the same molecule, on FGFR2, the “FGFR1 IC50/FGFR2 IC50” value is recorded as “G (a selectivity ratio greater than 150 but less than or equal to 500)”. Besides, on FGFR2, the “FGFR3 IC50/FGFR2 IC50” value is reported as “I (a selectivity ratio greater than 1000 but less than or equal to 2000)”. The GI50 on Ba/F3 FGFR2-N549K is 0.001 to 0.01 µM; at Ba/F3 FGFR2-V564F, no more than 0.001 µM.
As to `C=CC(=O)N1CCC2(CC=C(c3c(-c4ncc(C5CCOC5)cn4)c4c(N)ncnc4n3C)CC2)CC1` (stereo not drawn) [Example 52, 1-(9-(4-amino-7-methyl-5-(5-(tetrahydrofuran-3-yl)pyrimidin-2-yl)-7H-pyrrolo[2,3-d]pyrimidin-6-yl)-3-azaspiro[5.5]undec-8-en-3-yl)prop-2-en-1-one], the pIC50 is 8.00 to 9.00 at FGFR2, less than 7.00 on FGFR1 and less than 7.00 on FGFR3. The “FGFR1 IC50/FGFR2 IC50” value on FGFR2 was “H (a selectivity ratio greater than 500 but less than or equal to 1000)”. For the same molecule, the “FGFR3 IC50/FGFR2 IC50” value at FGFR2 was “I (a selectivity ratio greater than 1000 but less than or equal to 2000)”. The results for the GI50 on Ba/F3 FGFR2-N549K and at Ba/F3 FGFR2-V564F were 0.001 to 0.01 µM and no more than 0.001 µM, respectively.
